Reference: US12139520B2 (priority 2020, dated 2024)
pEC50: −log10 of the molar value. Bridge positions count the residues as written; N and C are the ends. Square brackets hold non-standard residues; d marks the D form. Peptide text beside a SMILES is read from it. Hyp = O=C(O)[C@@H]1C[C@@H](O)CN1

What was measured:
hAM1 receptor = hAM1 receptor (Homo sapiens, UniProt O60895+Q16602); assay: cAMP assay for in vitro receptor activation, hAM1-R; assay type: cell-based; details: cAMP assay, hAM1 receptor; read-out: hAM1R EC50
Sequence of hAM1 receptor (Q16602 23-461): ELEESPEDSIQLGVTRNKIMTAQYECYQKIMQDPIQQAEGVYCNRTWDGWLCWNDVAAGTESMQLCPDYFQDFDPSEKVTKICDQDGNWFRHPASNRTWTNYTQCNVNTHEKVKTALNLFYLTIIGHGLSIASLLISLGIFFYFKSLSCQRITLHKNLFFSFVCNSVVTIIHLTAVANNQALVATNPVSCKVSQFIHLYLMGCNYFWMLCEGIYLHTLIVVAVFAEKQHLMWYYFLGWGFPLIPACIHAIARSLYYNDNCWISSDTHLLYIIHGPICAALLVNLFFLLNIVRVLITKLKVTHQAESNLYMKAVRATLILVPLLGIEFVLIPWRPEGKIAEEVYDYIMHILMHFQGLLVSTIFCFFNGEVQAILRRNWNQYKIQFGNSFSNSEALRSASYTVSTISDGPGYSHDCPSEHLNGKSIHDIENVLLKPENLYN
Sequence of hAM1 receptor (O60895 43-175 partner): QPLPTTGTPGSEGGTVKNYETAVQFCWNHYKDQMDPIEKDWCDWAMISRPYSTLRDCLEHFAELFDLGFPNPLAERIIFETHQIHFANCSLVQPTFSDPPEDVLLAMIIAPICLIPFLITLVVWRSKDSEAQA
Summary of the method: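 Stable hAM1 cells (monoclonal) plated 8000/well; buffer DPBS, 0.05% casein, 0.5 mM IBMX; cAMP read-out.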

hAMY3 receptor = target: T1, hAMY3 receptor (Homo sapiens, UniProt O60896+P30988); assay: cAMP assay for in vitro receptor activation, hAMY3-R; assay type: cell-based; details: cAMP assay, hAMY3 receptor; read-out: hAMY3R EC50
T1 sequence (P30988 25-474): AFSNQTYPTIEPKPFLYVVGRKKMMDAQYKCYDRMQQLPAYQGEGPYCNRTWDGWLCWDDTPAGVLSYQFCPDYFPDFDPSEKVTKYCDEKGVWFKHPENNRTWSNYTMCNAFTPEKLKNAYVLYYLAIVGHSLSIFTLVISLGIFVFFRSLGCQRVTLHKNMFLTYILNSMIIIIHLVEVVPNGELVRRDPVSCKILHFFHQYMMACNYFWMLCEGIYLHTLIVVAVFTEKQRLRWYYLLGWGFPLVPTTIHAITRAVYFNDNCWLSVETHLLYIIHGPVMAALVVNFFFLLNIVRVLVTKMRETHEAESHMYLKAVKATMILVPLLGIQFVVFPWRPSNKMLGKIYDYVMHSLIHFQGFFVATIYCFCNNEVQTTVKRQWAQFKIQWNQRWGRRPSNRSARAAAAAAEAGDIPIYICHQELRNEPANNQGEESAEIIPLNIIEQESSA
T1 sequence (O60896 24-148 partner): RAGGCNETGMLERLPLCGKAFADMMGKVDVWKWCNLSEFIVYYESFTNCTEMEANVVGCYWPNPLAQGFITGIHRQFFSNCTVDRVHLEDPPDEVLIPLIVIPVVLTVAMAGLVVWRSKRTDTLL
Summary of the method: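 Graded compound concentrations were applied for 30 min at room temperature to stably hAMY3-expressing cells in DPBS, 0.05% casein, 0.5 mM IBMX; cAMP detected by TR-FRET.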

[1] = Physical stability of peptide analogues (Thioflavin T fibrillation); assay type: physicochemical; details: maximum ThT signal normalized between hAMY maximum and buffer background; 40° C., shaking, four days; pH 7 per table title
Summary of the method: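 ThT fluorescence (450 nm excitation, 480 nm emission; 4 μM dye) was read every 10 min over four days at 40° C under 700 rpm shaking stress, after 1 h in pH 4 acetate or pH 7 phosphate (50 mM). Peak smoothed signal expressed as percent, scaled between buffer background and hAMY maximum.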

Row | pEC50 (hAM1 receptor) | pEC50 (hAMY3 receptor) | Max ThT signal (%) [1] [%] | SMILES
1 | < 5.30 | 11.05 | 11.100 | CC[C@H](C)[C@H](NC(=O)[C@H](CCC(N)=O)NC(=O)[C@H](Cc1c[nH]cn1)NC(=O)[C@H](C)NC(=O)[C@H](CC(C)C)NC(=O)[C@H](Cc1c[nH]c2ccccc12)NC(=O)[C@H](CCC(N)=O)NC(=O)[C@@H](NC(=O)[C@@H](NC(=O)[C@@H]1CSSC[C@H](NC(=O)[C@@H](N)CCCCN)C(=O)N[C@@H](CC(N)=O)C(=O)N[C@@H]([C@@H](C)O)C(=O)N[C@@H](C)C(=O)N[C@@H]([C@@H](C)O)C(=O)N1)[C@@H](C)O)C(C)C)C(=O)N[C@@H](Cc1ccc(O)cc1)C(=O)N[C@@H](CCC(N)=O)C(=O)N[C@@H](Cc1ccccc1)C(=O)N[C@H](C(=O)N[C@@H](CC(=O)O)C(=O)N[C@@H](CCCCN)C(=O)N[C@@H](C)C(=O)N[C@@H](CCCCN)C(=O)N[C@@H](CC(=O)O)C(=O)N[C@@H](CC(N)=O)C(=O)N[C@H](C(=O)N[C@@H](C)C(=O)N1CCC[C@H]1C(=O)N1CCC[C@H]1C(=O)N[C@H](C(=O)N[C@@H](CC(N)=O)C(=O)N[C@H](C(=O)NCC(=O)N[C@@H](CO)C(=O)N[C@@H](CC(N)=O)C(=O)NCC(=O)N1C[C@H](O)C[C@H]1C(N)=O)C(C)C)[C@@H](C)O)C(C)C)[C@@H](C)O [compound 320] (H-KCNTATCTVQWLAHQIYQFTDKAKDNVAPPTNVGSNG[Hyp]-NH2; disulfide 2-7; N-terminus assumed)
2 | < 5.30 | 10.05 | 2.800 | CC[C@H](C)[C@H](NC(=O)[C@H](CCC(N)=O)NC(=O)[C@H](Cc1c[nH]cn1)NC(=O)[C@H](C)NC(=O)[C@H](CC(C)C)NC(=O)[C@H](CCCNC(=N)N)NC(=O)[C@H](CCC(N)=O)NC(=O)[C@@H](NC(=O)[C@@H](NC(=O)[C@@H]1CSSC[C@H](NC(=O)CN)C(=O)N[C@@H](CCCNC(=N)N)C(=O)N[C@@H]([C@@H](C)O)C(=O)NCC(=O)N[C@@H]([C@@H](C)O)C(=O)N1)[C@@H](C)O)C(C)C)C(=O)N[C@@H](Cc1ccc(O)cc1)C(=O)N[C@@H](CCC(N)=O)C(=O)N[C@@H](Cc1ccccc1)C(=O)N[C@H](C(=O)N[C@@H](CC(=O)O)C(=O)N[C@@H](CCCCN)C(=O)N[C@@H](Cc1ccccc1)C(=O)N[C@@H](CCCCN)C(=O)N[C@@H](CC(=O)O)C(=O)N[C@@H](CC(N)=O)C(=O)N[C@H](C(=O)N[C@@H](C)C(=O)N1CCC[C@H]1C(=O)N[C@@H](CCCNC(=N)N)C(=O)N[C@@H](CO)C(=O)N[C@@H](CCCCN)C(=O)N[C@H](C(=O)N[C@@H](CO)C(=O)N1CCC[C@H]1C(=O)N[C@@H](CCC(N)=O)C(=O)N[C@@H](Cc1c[nH]c2ccccc12)C(=O)N1C[C@H](O)C[C@H]1C(N)=O)[C@@H](C)CC)C(C)C)[C@@H](C)O [compound 185] (H-GCRTGTCTVQRLAHQIYQFTDKFKDNVAPRSKISPQW[Hyp]-NH2; disulfide 2-7; N-terminus assumed)
3 | < 5.30 | 11.10 | 5.300 | CC[C@H](C)[C@H](NC(=O)[C@H](CCC(N)=O)NC(=O)[C@H](CCC(=O)O)NC(=O)[C@H](C)NC(=O)[C@H](CC(C)C)NC(=O)[C@H](CCCNC(=N)N)NC(=O)[C@H](C)NC(=O)[C@@H](NC(=O)[C@@H](NC(=O)[C@@H]1CSSC[C@H](NC(=O)[C@@H](N)CCCNC(=N)N)C(=O)N[C@@H](CCC(N)=O)C(=O)N[C@@H]([C@@H](C)O)C(=O)N[C@@H](CO)C(=O)N[C@@H]([C@@H](C)O)C(=O)N1)[C@@H](C)O)C(C)C)C(=O)N[C@@H](C)C(=O)N[C@@H](CCC(N)=O)C(=O)N[C@@H](Cc1ccc(O)cc1)C(=O)N[C@H](C(=O)N[C@@H](CC(=O)O)C(=O)N[C@@H](CCCCN)C(=O)N[C@@H](CC(=O)O)C(=O)N[C@@H](CCCCN)C(=O)N[C@@H](CC(=O)O)C(=O)N[C@@H](CCC(N)=O)C(=O)N[C@H](C(=O)N[C@@H](C)C(=O)N1CCC[C@H]1C(=O)N1CCC[C@H]1C(=O)N[C@H](C(=O)N[C@@H](CC(N)=O)C(=O)N[C@H](C(=O)NCC(=O)N[C@@H](CO)C(=O)N[C@@H](CC(N)=O)C(=O)N[C@@H](CO)C(=O)N1C[C@H](O)C[C@H]1C(N)=O)C(C)C)[C@@H](C)O)C(C)C)[C@@H](C)O [compound 32] (H-RCQTSTCTVARLAEQIAQYTDKDKDQVAPPTNVGSNS[Hyp]-NH2; disulfide 2-7; N-terminus assumed)
